From US20100003754A1, “METHODS OF DIFFERENTIATING STEM CELLS” (Ossacur AG, priority 2006, published 2010)

How the values were obtained:
[1] = system: BMMSC; assay: Aggrecan immunofluorescence; type: cell-based, human; details: day 14; recombinant TGF-β1 only
Protocol: The cells were seeded in a density of 15×10^3 in a 12-well plate. 14 days after the treatment with the extracts, the cells were washed with PBS and then fixed with ice-cold 70% strength ethanol for at least 18 hours. The cells were then blocked in 3% strength goat serum (normal goat serum NGS) for one hour, and thereafter mouse anti-Aggrecan antibodies (Chemicon) were used with a concentration of 1 μg/ml and incubated at 4° C. for at least 18 hours. The primary antibodies were then removed, the cells were washed three times with PBS and subsequently incubated with anti-mouse FITC-conjugated IgM (Molecular Probes) in a ratio of 1:1000 for one hour. The secondary antibodies were removed and the cells were washed three times with the PBS. A negative control was carried out with the secondary antibody. After the incubation, the cells were washed, put on supports and inspected using a fluorescence microscope.

[2] = system: BMMSC; assay: Real time RT-PCR of cartilage-specific differentiation markers (SOX9, Aggrecan); type: cell-based, human; details: transcription level; treatment with TGF-β1
Protocol: Total cellular ribonucleic acid (RNA) was extracted using “NucleoSpin RNA II” from Macherey-Nagel. 1 μg of the RNA was amplified using a “one-step RT-PCR kit” (ABgene, UK). Real time (RT) PCR primers specific for collagen type I, SOX9, Aggrecan and glyceraldehyde-3-phosphate dehydrogenase (GAPDH) were used. Amplification of the so-called housekeeping gene GAPDH was used to verify the quality of the RNA and ensure uniform loading of resolving gels with the samples. A real time reverse transcription PCR was carried out using a LightCycler (Roche Diagnostic). The RT-PCR conditions included an RT step of 20 minutes at 61° C. to produce single-stranded cDNA from mRNA, followed by an inactivation of reverse transcriptase and denaturation at 95° C. for 30 seconds. 40 amplification cycles of one second at 95° C., of 15 seconds at 58° C. and of 13 seconds at 72° C. were carried out. Finally, a cooling step of 30 seconds at 40° C. was carried out.

[3] = system: human mesenchymal stem cells (BMMSC); assay: Cell proliferation, CellTiter 96 (MTT); type: cell-based; details: TGF-β1 10 ng/ml; stayed at a lower proliferation rate than the control groups
Protocol: (§1) The cells were trypsinized and then counted using trypan blue. 60×10^3 or 15×10^3 mesenchymal stem cells were seeded in a 25 cm^2 cell culture bottle or in a 12-well plate. Each vessel was charged with an appropriate amount of standard medium (control group) or a medium which contained the joint or meniscus extract (of bovine origin) in a dilute solution of 1:25 or 1:50. Recombinant TGF-β1 protein (R&D Systems) with a concentration of 10 ng/ml was used for chondrocytic differentiation of the BMMSC as positive control. Cell supernatants were collected and stored at −80° C.
Investigations on the cell proliferation were carried out using “CellTiter 96 Non-Radio-active” (Promega). This is a method based on 3-(4,5-dimethylthiazol-2-yl)-2,5-diphenyltetrazolium bromide (MTT) which determines the property of metabolically active cells of converting a tetrazolium salt. For example, the conversion of pale yellow MTT by cellular dehydrogenases into the dark blue, water-insoluble formazan is proportional to the activity of the dehydrogenases and thus to the survival rate of the cells. The absorbance is measured at a wavelength of 595 nm. The cells were counted and seeded in a density of […] in a 96-well round-bottom plate. The cell proliferation was determined on day 1, 3, 7 and 14. […] The absorbance was measured at the wavelength of 595 nm with a reference wavelength of 655 nm.

[4] = system: BMMSC; assay: Quantification of chondroitin sulfate (Alcian blue); type: cell-based, human; details: parallel addition of 10 ng/ml TGF-β1
Protocol: as §1
The cells were washed with the PBS and then incubated with Alcian blue stain (1% Alcian blue in 3% strength acetic acid) for 20 minutes. The cells were decolorized by washing three times with 3% strength acetic acid and washing once with water. To quantify the stain which has been taken up, the cells were solubilized by shaking in 1% strength SDS solution at room temperature for 30 minutes and then heating at 90° C. for one hour. The absorbance was detected at the wavelength of 595 nm.

Substance: TGF-β1: Recombinant TGF-β1 protein (R&D Systems), 10 ng/ml, positive control for chondrocytic differentiation
- number of aggrecan-positive cells compared with the untreated control samples [1]: larger numbers
- mRNA for aggrecan [2]: significantly increased
- cell proliferation [3]: graduated increase
- chondroitin sulfate [4]: increase in chondroitin sulfate
